Active and inactive are the calls of the source. No cut-off for these calls is given here.
Assays:
[1] = target: T1, Protein cereblon/Poly [ADP-ribose] polymerase 1 (Homo sapiens, UniProt P09874+Q96SW2); assay: PROTAC activity at CRBN/PARP1 in human HCT-116 cells assessed as degradation of PARP1 at 1 uM in presence of MG132; format: cell-based
Target sequence in this assay (P09874 2-1014 limits assumed): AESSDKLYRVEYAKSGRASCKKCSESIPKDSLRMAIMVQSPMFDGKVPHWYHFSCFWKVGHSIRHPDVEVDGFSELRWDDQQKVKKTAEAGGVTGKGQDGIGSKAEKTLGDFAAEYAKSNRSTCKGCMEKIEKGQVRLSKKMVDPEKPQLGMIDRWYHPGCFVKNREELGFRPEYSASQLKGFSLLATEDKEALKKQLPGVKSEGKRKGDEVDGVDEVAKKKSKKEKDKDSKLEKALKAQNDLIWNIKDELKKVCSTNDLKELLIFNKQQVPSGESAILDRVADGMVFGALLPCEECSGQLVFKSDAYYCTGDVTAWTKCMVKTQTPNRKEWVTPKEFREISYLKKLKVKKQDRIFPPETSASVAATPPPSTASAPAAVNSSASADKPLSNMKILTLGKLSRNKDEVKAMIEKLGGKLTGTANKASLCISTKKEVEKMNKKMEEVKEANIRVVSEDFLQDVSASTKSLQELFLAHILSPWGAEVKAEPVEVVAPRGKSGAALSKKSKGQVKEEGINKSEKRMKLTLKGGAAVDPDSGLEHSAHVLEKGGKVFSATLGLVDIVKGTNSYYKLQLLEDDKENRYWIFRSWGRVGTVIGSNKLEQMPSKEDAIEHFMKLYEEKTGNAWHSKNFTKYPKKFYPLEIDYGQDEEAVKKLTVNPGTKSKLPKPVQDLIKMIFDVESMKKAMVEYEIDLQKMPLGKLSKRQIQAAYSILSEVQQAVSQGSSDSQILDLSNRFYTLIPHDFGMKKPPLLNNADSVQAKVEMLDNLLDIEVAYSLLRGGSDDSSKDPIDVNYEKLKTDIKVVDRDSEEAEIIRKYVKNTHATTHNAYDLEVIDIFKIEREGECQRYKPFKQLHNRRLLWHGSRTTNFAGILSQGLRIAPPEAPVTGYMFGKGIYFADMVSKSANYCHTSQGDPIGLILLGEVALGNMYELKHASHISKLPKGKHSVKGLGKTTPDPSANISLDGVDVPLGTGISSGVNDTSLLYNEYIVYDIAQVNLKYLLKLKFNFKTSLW
Target sequence in this assay (Q96SW2 whole entry partner): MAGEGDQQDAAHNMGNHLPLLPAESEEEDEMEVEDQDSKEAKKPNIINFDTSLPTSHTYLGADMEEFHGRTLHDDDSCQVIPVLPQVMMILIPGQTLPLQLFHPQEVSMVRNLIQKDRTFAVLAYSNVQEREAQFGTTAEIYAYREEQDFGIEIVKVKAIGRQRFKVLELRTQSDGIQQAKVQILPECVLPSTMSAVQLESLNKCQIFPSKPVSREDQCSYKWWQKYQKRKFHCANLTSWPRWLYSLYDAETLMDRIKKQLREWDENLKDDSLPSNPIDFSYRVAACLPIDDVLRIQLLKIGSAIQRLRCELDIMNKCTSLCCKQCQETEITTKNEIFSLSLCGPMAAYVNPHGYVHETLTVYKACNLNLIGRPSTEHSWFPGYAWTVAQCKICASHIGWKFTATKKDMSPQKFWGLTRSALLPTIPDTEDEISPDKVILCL

[2] = Cytotoxicity against HEK293T cells assessed as inhibition of cell growth measured after 72 hrs by CCK-8 method; format: toxicity, cell-based, HEK-293T; settings: human
SW-620 [3] = assay: Cytotoxicity against human SW620 cells assessed as inhibition of cell growth measured after 72 hrs by CCK-8 method; format: functional, cell-based; settings: SW-620, 72 h
[4] = target: T1, Protein cereblon/Poly [ADP-ribose] polymerase 1; assay: PROTAC activity at CRBN/PARP1 in human HCT-116 cells assessed as decrease in PARP1 level at 1 uM measured after 4 hrs; format: cell-based
Target sequence in this assay (P09874 2-1014 limits assumed): as the sequence (P09874 2-1014 limits assumed) above
Target sequence in this assay (Q96SW2 whole entry partner): as the sequence (Q96SW2 whole entry partner) above

HCT-116 [5] = assay: Downregulation of CDC25 level in human HCT-116 cells at 1 uM in presence of SN-38 by KEGG enrichment analysis; format: functional, cell-based
HCT-116 [6] = assay: Induction of apoptosis in human HCT-116 cells assessed as viable cells at 1 uM measured after 72 hrs by annexin V/FITC and PI staining based flow cytometry analysis (reference value: 89.6%); format: functional; settings: read-out: Activity
HCT-116 [7] = assay: Antagonistic antiproliferative activity against human HCT-116 cells assessed as combination index at 2 uM measured after 72 hrs in presence of 1.25 nM of SN-38 by CCK-8 method; format: functional
HCT-116 [8] = assay: Synergistic antiproliferative activity against human HCT-116 cells assessed as combination index at 4 uM measured after 72 hrs in presence of 5 nM of SN-38 by CCK-8 method; format: functional
[9] = target: T2, Protein cereblon/Poly [ADP-ribose] polymerase 2 (Homo sapiens, UniProt Q9UGN5+Q96SW2); assay: PROTAC activity at CRBN/PARP2 in human HCT-116 cells assessed as degradation of PARP2; format: cell-based
Target sequence in this assay (Q9UGN5 whole entry): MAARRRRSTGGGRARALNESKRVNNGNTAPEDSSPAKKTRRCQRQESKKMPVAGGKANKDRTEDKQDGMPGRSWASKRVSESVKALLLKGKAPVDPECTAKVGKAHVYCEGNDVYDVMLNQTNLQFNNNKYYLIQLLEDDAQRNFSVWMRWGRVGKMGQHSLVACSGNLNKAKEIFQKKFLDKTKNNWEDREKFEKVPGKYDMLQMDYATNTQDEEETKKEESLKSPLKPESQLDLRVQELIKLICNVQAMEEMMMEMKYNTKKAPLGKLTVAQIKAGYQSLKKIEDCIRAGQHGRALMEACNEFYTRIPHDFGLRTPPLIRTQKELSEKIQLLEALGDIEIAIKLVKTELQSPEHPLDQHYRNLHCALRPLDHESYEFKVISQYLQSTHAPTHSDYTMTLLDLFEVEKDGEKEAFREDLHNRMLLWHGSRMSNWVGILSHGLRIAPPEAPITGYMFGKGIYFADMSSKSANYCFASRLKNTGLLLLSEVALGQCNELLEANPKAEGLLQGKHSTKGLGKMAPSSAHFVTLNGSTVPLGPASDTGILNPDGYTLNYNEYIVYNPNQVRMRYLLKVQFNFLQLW
Target sequence in this assay (Q96SW2 whole entry): as the sequence (Q96SW2 whole entry partner) above

HCT-116 [10] = assay: Synergistic antiproliferative activity against human HCT-116 cells assessed as combination index at 4 uM measured after 72 hrs in presence of 0.625 nM of SN-38 by CCK-8 method; format: functional
HCT-116 [11] = assay: Effect on BRCA protein level in human HCT-116 cells at 1 uM in presence of SN-38 by Western blot analysis; format: functional, cell-based
HCT-116 [12] = assay: Synergistic antiproliferative activity against human HCT-116 cells assessed as combination index at 1 uM measured after 72 hrs in presence of 5 nM of SN-38 by CCK-8 method; format: functional
HCT-116 [13] = assay: Induction of apoptosis in human HCT-116 cells assessed as early apoptotic cells at 1 uM measured after 72 hrs in presence of SN-38 by annexin V/FITC and PI staining based flow cytometry analysis (reference value: 3.43%); format: functional
HCT-116 [14] = assay: Synergistic antiproliferative activity against human HCT-116 cells assessed as combination index at 0.5 uM measured after 72 hrs in presence of 10 nM of SN-38 by CCK-8 method; format: functional
[15] = target: T1, Protein cereblon/Poly [ADP-ribose] polymerase 1; assay: PROTAC activity at CRBN/PARP1 in human HCT-116 cells assessed as degradation of PARP1 measured after 24 hrs; format: cell-based
Target sequence in this assay (P09874 whole entry): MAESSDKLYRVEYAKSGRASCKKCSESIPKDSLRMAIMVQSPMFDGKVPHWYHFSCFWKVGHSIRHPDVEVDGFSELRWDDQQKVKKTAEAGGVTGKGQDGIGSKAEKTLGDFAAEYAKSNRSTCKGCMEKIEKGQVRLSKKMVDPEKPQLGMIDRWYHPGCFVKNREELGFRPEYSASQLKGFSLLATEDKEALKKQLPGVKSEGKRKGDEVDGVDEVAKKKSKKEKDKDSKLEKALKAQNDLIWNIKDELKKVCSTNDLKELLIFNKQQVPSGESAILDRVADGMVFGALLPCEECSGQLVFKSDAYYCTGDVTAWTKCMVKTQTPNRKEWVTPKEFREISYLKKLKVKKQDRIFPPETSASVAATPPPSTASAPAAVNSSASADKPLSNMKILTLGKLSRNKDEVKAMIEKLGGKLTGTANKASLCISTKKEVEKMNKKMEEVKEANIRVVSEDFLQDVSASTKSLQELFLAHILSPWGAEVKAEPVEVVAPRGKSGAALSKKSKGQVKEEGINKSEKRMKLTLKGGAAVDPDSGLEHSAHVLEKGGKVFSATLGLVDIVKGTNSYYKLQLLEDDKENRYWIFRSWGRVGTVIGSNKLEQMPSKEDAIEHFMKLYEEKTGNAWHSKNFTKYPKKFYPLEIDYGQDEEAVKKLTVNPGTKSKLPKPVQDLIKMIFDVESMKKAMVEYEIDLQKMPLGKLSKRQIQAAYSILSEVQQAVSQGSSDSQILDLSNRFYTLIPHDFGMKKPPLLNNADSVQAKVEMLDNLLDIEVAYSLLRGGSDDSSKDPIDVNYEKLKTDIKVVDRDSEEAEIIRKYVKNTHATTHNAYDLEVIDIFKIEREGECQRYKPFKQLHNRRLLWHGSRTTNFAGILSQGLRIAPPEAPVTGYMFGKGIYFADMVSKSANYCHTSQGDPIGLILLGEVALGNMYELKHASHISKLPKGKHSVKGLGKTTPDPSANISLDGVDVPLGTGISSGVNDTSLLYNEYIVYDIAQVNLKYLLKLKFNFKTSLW
Target sequence in this assay (Q96SW2 whole entry): as the sequence (Q96SW2 whole entry partner) above

HCT-116 [16] = assay: Synergistic antiproliferative activity against human HCT-116 cells assessed as combination index at 0.5 uM measured after 72 hrs in presence of 1.25 nM of SN-38 by CCK-8 method; format: functional
HCT-116 [17] = assay: Synergistic antiproliferative activity against human HCT-116 cells assessed as combination index at 4 uM measured after 72 hrs in presence of 2.5 nM of SN-38 by CCK-8 method; format: functional
HCT-116 [18] = assay: Effect on DNA-PKcs protein level in human HCT-116 cells at 1 uM in presence of SN-38 by Western blot analysis; format: functional, cell-based
HCT-116 [19] = assay: Synergistic antiproliferative activity against human HCT-116 cells assessed as combination index at 0.5 uM measured after 72 hrs in presence of 2.5 nM of SN-38 by CCK-8 method; format: functional
[20] = target: T2, Protein cereblon/Poly [ADP-ribose] polymerase 2; assay: PROTAC activity at CRBN/PARP2 in human HCT-116 cells assessed as maximum degradation of PARP2 relative to control; format: cell-based
Target sequence in this assay (Q96SW2 whole entry, looked up): as the sequence (Q96SW2 whole entry partner) above
Target sequence in this assay (Q9UGN5 whole entry, looked up): as the sequence (Q9UGN5 whole entry) above

HCT-116 [21] = assay: Synergistic antiproliferative activity against human HCT-116 cells assessed as combination index at 2 uM measured after 72 hrs in presence of 5 nM of SN-38 by CCK-8 method; format: functional
HCT-116 [22] = assay: Upregulation of HMCN1 level in human HCT-116 cells at 1 uM in presence of SN-38 by KEGG enrichment analysis; format: functional, cell-based
HCT-116 [23] = assay: Induction of apoptosis in human HCT-116 cells assessed as late apoptotic cells at 1 uM measured after 72 hrs in presence of SN-38 by annexin V/FITC and PI staining based flow cytometry analysis (reference value: 6.80%); format: functional
HCT-116 [24] = assay: Synergistic antiproliferative activity against human HCT-116 cells assessed as combination index at 1 uM measured after 72 hrs in presence of 2.5 nM of SN-38 by CCK-8 method; format: functional
HCT-116 [25] = assay: Downregulation of HSPA2 level in human HCT-116 cells at 1 uM in presence of SN-38 by KEGG enrichment analysis; format: functional, cell-based
HCT-116 [26] = assay: Induction of apoptosis in human HCT-116 cells assessed as viable cells at 1 uM measured after 72 hrs in presence of SN-38 by annexin V/FITC and PI staining based flow cytometry analysis (reference value: 89.6%); format: functional; settings: read-out: Activity
SW-620 [27] = assay: Potency index, ratio of SK-575 IC50 to test compound IC50 for cytotoxicity against human SW620 cells assessed as inhibition of cell growth measured after 72 hrs by CCK-8 method; format: functional
[28] = target: T1, Protein cereblon/Poly [ADP-ribose] polymerase 1; assay: PROTAC activity at CRBN/PARP1 in human HCT-116 cells assessed as degradation of PARP1 at 1 uM in presence of MLN4924; format: cell-based
Target sequence in this assay (P09874 2-1014 limits assumed): as the sequence (P09874 2-1014 limits assumed) above
Target sequence in this assay (Q96SW2 whole entry partner): as the sequence (Q96SW2 whole entry partner) above

HCT-116 [29] = assay: Synergistic antiproliferative activity against human HCT-116 cells assessed as combination index at 1 uM measured after 72 hrs in presence of 1.25 nM of SN-38 by CCK-8 method; format: functional
HCT-116 [30] = assay: Synergistic antiproliferative activity against human HCT-116 cells assessed as combination index at 4 uM measured after 72 hrs in presence of 1.25 nM of SN-38 by CCK-8 method; format: functional
[31] = target: T1, Protein cereblon/Poly [ADP-ribose] polymerase 1; assay: PROTAC activity at CRBN/PARP1 in human RKO cells assessed as degradation of PARP1 measured after 24 hrs; format: cell-based
Target sequence in this assay (P09874 whole entry): as the sequence (P09874 whole entry) above
Target sequence in this assay (Q96SW2 whole entry): as the sequence (Q96SW2 whole entry partner) above

HCT-116 [32] = assay: Induction of apoptosis in human HCT-116 cells assessed as late apoptotic cells at 1 uM measured after 72 hrs by annexin V/FITC and PI staining based flow cytometry analysis (reference value: 6.80%); format: functional
HCT-116 [33] = assay: Synergistic antiproliferative activity against human HCT-116 cells assessed as combination index at 0.5 uM measured after 72 hrs in presence of 0.625 nM of SN-38 by CCK-8 method; format: functional
[34] = target: T1, Protein cereblon/Poly [ADP-ribose] polymerase 1; assay: PROTAC activity at CRBN/PARP1 in human HCT-116 cells assessed as degradation of PARP1; format: cell-based
Target sequence in this assay (P09874 whole entry): as the sequence (P09874 whole entry) above
Target sequence in this assay (Q96SW2 whole entry): as the sequence (Q96SW2 whole entry partner) above

HCT-116 [35] = assay: Antagonistic antiproliferative activity against human HCT-116 cells assessed as combination index at 1 uM measured after 72 hrs in presence of 0.625 nM of SN-38 by CCK-8 method; format: functional

Activity [1]: inactive | Activity [4]: Active | DC50 [9]: 19.1 µM | DC50 [15]: 0.0581 µM | Emax [20]: 84.8% | Activity [28]: inactive | DC50 [31]: 0.161 µM | DC50 [34]: 0.03 µM
Compound: NC(=O)c1cccc2cn(-c3ccc([C@@H]4CCCN(CCC5CCN(CCC6CCN(CC7CCN(c8ccc9c(c8)C(=O)N(C8CCC(=O)NC8=O)C9=O)CC7)CC6)CC5)C4)cc3)nc12 (stereo not given in full)
IC50 at 72 h [2]: 4.13 µM | IC50 (SW-620 [3]): 1.63 µM | Activity (HCT-116 [5]): Active | viability at 1 µM (HCT-116 [6]): 83.6% | CI (HCT-116 [7]): 1.092 | CI (HCT-116 [8]): 0.457 | CI (HCT-116 [10]): 0.567 | Activity (HCT-116 [11]): inactive | CI (HCT-116 [12]): 0.698 | Activity (HCT-116 [13]): 11.9% | CI (HCT-116 [14]): 0.753 | CI (HCT-116 [16]): 0.932 | CI (HCT-116 [17]): 0.545 | Activity (HCT-116 [18]): inactive | CI (HCT-116 [19]): 0.879 | CI (HCT-116 [21]): 0.752 | Activity (HCT-116 [22]): Active | Activity (HCT-116 [23]): 19.7% | CI (HCT-116 [24]): 0.823 | Activity (HCT-116 [25]): Active | viability at 1 µM (HCT-116 [26]): 58.2% | Ratio IC50 (SW-620 [27]): <6 | CI (HCT-116 [29]): 0.969 | CI (HCT-116 [30]): 0.574 | Activity (HCT-116 [32]): 10.4% | CI (HCT-116 [33]): 0.967 | CI (HCT-116 [35]): 1.003
